Activity calls are given as the source filed them. No cut-off for these calls is given here.
Legend:
[1] = system: Plasma; test: Anticoagulation activity in human plasma assessed as drug level causing 20 times doubling of APTT preincubated for 2 mins followed by APTT reagent and measured after 3 mins by coagulometric method; type: functional; settings: time 5 min
[2] = system: Rattus norvegicus; test: (§1) Antithrombotic activity in thromboplastin and stasis-induced Sprague-Dawley rat deep venous thrombosis model assessed as reduction in venous thrombosis by measuring activity potency of oligosaccharides multiplied by the percentage of oligosaccharides in dHG-5 at 13.5 mg/kg, sc administered 1 hr prior to thromboplastin addition for 20 secs followed by establishment of stasis for 20 mins relative to dHG-5; type: functional; settings: time 80.33 min, 1.339 h
[3] = target: Coagulation factor IX/VIII (Homo sapiens, UniProt P00451+P00740); test: (§2) Inhibition of human citrated plasma iXase (factor 8a-factor 9a complex) preincubated for 2 mins followed by factor 10 addition and measured after 1 min by FXa chromogenic substrate SXa-11 based assay; type: protein-complex assay
[4] = target: T1, Coagulation factor VII (Homo sapiens) (UniProt P08709); test: Inhibition of factor 7a (unknown origin) at IC50 using pefachrome factor VIIa as substrate preincubated for 1 min followed by chromogenic substrate addition and measured for 2 mins in presence of AT-III; settings: time 3.0 min
T1 sequence (whole entry): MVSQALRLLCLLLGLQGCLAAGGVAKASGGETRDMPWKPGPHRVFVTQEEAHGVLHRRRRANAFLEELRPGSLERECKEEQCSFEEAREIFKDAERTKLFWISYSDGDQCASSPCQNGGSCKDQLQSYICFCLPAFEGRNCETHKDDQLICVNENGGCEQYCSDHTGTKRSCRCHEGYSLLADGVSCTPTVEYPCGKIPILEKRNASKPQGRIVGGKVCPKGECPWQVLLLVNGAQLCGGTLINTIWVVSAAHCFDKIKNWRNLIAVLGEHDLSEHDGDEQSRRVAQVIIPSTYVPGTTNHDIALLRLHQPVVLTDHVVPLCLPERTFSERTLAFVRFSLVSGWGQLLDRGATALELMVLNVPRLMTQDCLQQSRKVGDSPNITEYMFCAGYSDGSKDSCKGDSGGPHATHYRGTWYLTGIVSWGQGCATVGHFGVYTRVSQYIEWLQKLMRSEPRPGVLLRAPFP

[5] = target: T1, Coagulation factor VII (Homo sapiens); test: Inhibition of factor 7a (unknown origin) at IC50 using pefachrome factor VIIa as substrate preincubated for 1 min followed by chromogenic substrate addition and measured for 2 mins; settings: time 3.0 min
[6] = system: Rattus norvegicus; test: Antithrombotic activity in thromboplastin and stasis-induced Sprague-Dawley rat deep venous thrombosis model assessed as reduction in venous thrombosis at 13.5 mg/kg, sc administered 1 hr prior to thromboplastin addition for 20 secs followed by establishment of stasis for 20 mins relative to dHG-5; type: functional; settings: time 80.33 min, 1.339 h
[7] = target: T2, Coagulation factor IX (Homo sapiens, UniProt P00740); test: Inhibition of factor 9a (unknown origin) binding to immobilized biotinylated oHG-11 by biolayer interferometry relative to dHG-5
[8] = target: Coagulation factor XI (Homo sapiens) (UniProt P03951); test: Inhibition of factor 11a (unknown origin) at IC50 using S-2366 as substrate preincubated for 1 min followed by chromogenic substrate addition and measured for 2 mins; settings: time 3.0 min
[9] = target: T3, Coagulation factor XII (Homo sapiens) (UniProt P00748); test: Inhibition of factor 12a (unknown origin) at IC50 using kallikrein chromogenic substrate preincubated for 1 min followed by chromogenic substrate addition and measured for 2 mins; settings: time 3.0 min
T3 sequence (whole entry): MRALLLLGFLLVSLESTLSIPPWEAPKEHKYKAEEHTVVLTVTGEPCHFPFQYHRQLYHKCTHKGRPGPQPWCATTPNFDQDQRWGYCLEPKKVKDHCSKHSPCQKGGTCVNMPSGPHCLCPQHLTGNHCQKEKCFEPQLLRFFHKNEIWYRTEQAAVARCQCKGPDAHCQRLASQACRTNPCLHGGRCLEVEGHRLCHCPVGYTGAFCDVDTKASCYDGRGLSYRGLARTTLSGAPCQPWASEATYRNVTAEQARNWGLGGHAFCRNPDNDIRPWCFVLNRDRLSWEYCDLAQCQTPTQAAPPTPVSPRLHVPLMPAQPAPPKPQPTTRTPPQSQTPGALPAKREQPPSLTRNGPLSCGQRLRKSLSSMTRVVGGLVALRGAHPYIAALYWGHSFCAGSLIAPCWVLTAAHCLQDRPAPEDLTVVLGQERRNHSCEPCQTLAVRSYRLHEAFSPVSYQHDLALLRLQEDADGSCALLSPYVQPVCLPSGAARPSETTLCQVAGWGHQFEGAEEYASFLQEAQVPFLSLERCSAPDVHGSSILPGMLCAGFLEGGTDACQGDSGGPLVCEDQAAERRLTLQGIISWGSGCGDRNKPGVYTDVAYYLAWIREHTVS

[10] = target: T4, Coagulation factor IX/VIII (Homo sapiens) (UniProt P00740+P00451); test: as §2, with “complex) assessed as activity potency of oligosaccharides multiplied by the percentage of oligosaccharides in dHG-5” for “complex)”, “assay relative to dHG-5” for “assay”; type: protein-complex assay; settings: time 3.0 min
[11] = target: Coagulation factor XI (Homo sapiens) (UniProt P03951); test: Inhibition of factor 11a (unknown origin) at IC50 using S-2366 as substrate preincubated for 1 min followed by chromogenic substrate addition and measured for 2 mins in presence of AT-III; settings: time 3.0 min
[12] = target: Coagulation factor X (Homo sapiens) (UniProt P00742); test: Inhibition of factor 10a (unknown origin) at IC50 preincubated for 1 min followed by chromogenic substrate addition and measured for 2 mins; settings: time 3.0 min
[13] = system: Plasma; test: Anticoagulation activity in human plasma assessed as drug level causing 20 times doubling of APTT by measuring activity potency of oligosaccharides multiplied by the percentage of oligosaccharides in dHG-5 preincubated for 2 mins followed by APTT reagent and measured after 3 mins by coagulometric method relative to dHG-5; type: functional; settings: time 5 min
[14] = system: Plasma; test: Anticoagulation activity in human plasma assessed as drug level causing 20 times doubling of APTT preincubated for 2 mins followed by APTT reagent and measured after 3 mins by coagulometric method relative to dHG-5; type: functional; settings: time 5 min
[15] = target: Prothrombin (Homo sapiens) (UniProt P00734); test: Inhibition of factor 2a (unknown origin) at IC50 preincubated for 1 min followed by chromogenic substrate addition and measured for 2 mins in presence of AT-III; settings: time 3.0 min
[16] = target: Prothrombin (Homo sapiens) (UniProt P00734); test: Inhibition of factor 2a (unknown origin) at IC90 preincubated for 1 min followed by chromogenic substrate addition and measured for 2 mins in presence of AT-III; settings: time 3.0 min
[17] = target: T3, Coagulation factor XII (Homo sapiens); test: Inhibition of factor 12a (unknown origin) at IC50 using kallikrein chromogenic substrate preincubated for 1 min followed by chromogenic substrate addition and measured for 2 mins in presence of AT-III; settings: time 3.0 min
[18] = target: Coagulation factor XI (Homo sapiens) (UniProt P03951); test: Inhibition of factor 11a (unknown origin) at IC90 using S-2366 as substrate preincubated for 1 min followed by chromogenic substrate addition and measured for 2 mins in presence of AT-III; settings: time 3.0 min
[19] = target: Prothrombin (Homo sapiens) (UniProt P00734); test: Inhibition of factor 2a (unknown origin) at IC50 preincubated for 1 min followed by chromogenic substrate addition and measured for 2 mins; settings: time 3.0 min
[20] = system: Plasma; test: Anticoagulation activity in AT-III-deficient human plasma preincubated for 2 mins followed by APTT reagent and measured after 3 mins by coagulometric method; type: functional, cell-free; settings: time 5.0 min
[21] = target: T2, Coagulation factor IX; test: Inhibition of factor 9a (unknown origin) binding to immobilized biotinylated oHG-11 assessed as activity potency of oligosaccharides multiplied by the percentage of oligosaccharides in dHG-5 by biolayer interferometry relative to dHG-5
[22] = target: Coagulation factor X (Homo sapiens) (UniProt P00742); test: Inhibition of factor 10a (unknown origin) at IC50 preincubated for 1 min followed by chromogenic substrate addition and measured for 2 mins in presence of AT-III; settings: time 3.0 min
[23] = system: Rattus norvegicus; test: Antithrombotic activity in thromboplastin and stasis-induced Sprague-Dawley rat deep venous thrombosis model assessed as reduction in venous thrombosis at 13.5 mg/kg, sc administered 1 hr prior to thromboplastin addition for 20 secs followed by establishment of stasis for 20 mins; type: functional; parameters: scale not given: the % may be the effect or the level left; settings: time 80.33 min, 1.339 h
[24] = target: T2, Coagulation factor IX; test: Inhibition of factor 9a (unknown origin) binding to immobilized biotinylated oHG-11 by biolayer interferometry
[25] = system: Plasma; test: Anticoagulation activity in HCII-deficient human plasma preincubated for 2 mins followed by APTT reagent and measured after 3 mins by coagulometric method; type: functional, cell-free; settings: time 5.0 min
[26] = target: T4, Coagulation factor IX/VIII (Homo sapiens); test: Inhibition of human citrated plasma iXase (factor 8a-factor 9a complex) preincubated for 2 mins followed by factor 10 addition and measured after 1 min by FXa chromogenic substrate SXa-11 based assay relative to dHG-5; type: protein-complex assay; settings: time 3.0 min
[27] = target: Coagulation factor X (Homo sapiens) (UniProt P00742); test: Inhibition of factor 10a (unknown origin) at IC90 preincubated for 1 min followed by chromogenic substrate addition and measured for 2 mins in presence of AT-III relative to control; settings: time 3.0 min
[28] = system: Rattus norvegicus; test: Antithrombotic activity in thromboplastin and stasis-induced Sprague-Dawley rat deep venous thrombosis model assessed as reduction in venous thrombosis at 4.94 mg/kg, sc administered 1 hr prior to thromboplastin addition for 20 secs followed by establishment of stasis for 20 mins relative to dHG-5; type: functional; settings: time 80.33 min, 1.339 h
[29] = system: Rattus norvegicus; test: as §1, with “4.94” for “13.5”; type: functional; settings: time 80.33 min, 1.339 h
[30] = system: Plasma; test: Induction of platelet aggregation in human platelet rich plasma at plasma peak concentration of 10 times anti-thrombosis ED50 measured after 10 mins by light transmission aggregometry
[31] = system: Plasma; test: Induction of platelet aggregation in rat wash platelet at plasma peak concentration of 10 times anti-thrombosis ED50 measured after 10 mins by light transmission aggregometry

Chain of Coagulation factor XI (Homo sapiens) (P03951 19-387 limits assumed): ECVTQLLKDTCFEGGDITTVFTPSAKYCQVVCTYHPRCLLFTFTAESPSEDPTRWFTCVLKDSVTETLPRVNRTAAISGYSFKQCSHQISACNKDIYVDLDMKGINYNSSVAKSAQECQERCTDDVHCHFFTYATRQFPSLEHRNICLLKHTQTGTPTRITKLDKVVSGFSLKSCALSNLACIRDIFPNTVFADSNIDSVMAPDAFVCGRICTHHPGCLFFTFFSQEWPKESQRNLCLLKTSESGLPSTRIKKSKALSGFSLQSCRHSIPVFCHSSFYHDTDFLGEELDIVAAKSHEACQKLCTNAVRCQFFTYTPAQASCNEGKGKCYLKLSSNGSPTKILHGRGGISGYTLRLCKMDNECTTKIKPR
Chain of Coagulation factor XI (Homo sapiens) (P03951 388-625 limits assumed): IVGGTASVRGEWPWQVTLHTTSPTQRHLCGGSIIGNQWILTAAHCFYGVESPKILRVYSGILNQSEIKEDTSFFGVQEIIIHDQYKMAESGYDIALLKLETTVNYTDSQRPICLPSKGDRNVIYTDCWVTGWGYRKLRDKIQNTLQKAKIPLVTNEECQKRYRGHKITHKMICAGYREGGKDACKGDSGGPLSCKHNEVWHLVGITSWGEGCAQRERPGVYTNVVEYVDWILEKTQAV
T2 sequence (P00740 47-191 limits assumed): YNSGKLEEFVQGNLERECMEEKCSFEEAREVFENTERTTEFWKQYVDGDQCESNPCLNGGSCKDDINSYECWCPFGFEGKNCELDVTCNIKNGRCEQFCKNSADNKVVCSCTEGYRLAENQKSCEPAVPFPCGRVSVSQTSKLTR
T2 sequence (P00740 227-461 limits assumed): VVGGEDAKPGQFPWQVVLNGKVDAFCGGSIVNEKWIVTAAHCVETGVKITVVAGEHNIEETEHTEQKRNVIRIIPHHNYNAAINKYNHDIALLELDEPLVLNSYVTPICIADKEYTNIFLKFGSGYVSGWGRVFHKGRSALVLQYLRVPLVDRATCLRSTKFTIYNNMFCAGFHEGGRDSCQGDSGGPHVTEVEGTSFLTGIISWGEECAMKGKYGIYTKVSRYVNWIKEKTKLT
Chain of Coagulation factor X (Homo sapiens) (P00742 41-179 limits assumed): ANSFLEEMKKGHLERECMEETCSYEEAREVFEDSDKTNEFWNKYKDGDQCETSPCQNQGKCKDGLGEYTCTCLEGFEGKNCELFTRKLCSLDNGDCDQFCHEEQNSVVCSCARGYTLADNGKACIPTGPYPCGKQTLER
Chain of Coagulation factor X (Homo sapiens) (P00742 235-488 limits assumed): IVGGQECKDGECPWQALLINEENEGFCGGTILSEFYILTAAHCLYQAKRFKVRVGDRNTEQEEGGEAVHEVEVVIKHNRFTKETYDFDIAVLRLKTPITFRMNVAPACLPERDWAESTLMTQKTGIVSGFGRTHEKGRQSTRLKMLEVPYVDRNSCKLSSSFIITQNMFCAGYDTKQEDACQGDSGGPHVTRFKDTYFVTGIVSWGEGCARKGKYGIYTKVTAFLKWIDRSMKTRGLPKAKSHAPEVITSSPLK
Chain of Coagulation factor IX/VIII (P00451 20-759 limits assumed): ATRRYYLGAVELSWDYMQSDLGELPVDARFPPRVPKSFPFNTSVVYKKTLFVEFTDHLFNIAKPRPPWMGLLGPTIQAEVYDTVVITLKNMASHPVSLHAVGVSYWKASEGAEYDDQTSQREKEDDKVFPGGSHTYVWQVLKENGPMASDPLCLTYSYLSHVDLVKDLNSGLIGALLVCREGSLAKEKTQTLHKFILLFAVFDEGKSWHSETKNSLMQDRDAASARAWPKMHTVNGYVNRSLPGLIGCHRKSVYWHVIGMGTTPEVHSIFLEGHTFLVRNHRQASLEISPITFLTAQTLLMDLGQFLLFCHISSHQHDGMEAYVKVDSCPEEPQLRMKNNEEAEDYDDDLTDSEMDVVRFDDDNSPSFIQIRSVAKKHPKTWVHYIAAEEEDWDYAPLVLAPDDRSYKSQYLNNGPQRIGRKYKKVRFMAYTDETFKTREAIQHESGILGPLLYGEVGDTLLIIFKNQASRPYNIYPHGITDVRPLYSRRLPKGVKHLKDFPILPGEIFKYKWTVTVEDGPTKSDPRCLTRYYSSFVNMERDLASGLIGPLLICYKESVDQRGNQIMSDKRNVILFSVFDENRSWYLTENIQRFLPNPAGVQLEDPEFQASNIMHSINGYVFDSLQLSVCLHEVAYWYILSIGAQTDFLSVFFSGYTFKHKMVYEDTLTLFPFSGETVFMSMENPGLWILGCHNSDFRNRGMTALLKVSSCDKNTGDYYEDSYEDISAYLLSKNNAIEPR
Chain of Coagulation factor IX/VIII (P00451 1668-2351 limits assumed): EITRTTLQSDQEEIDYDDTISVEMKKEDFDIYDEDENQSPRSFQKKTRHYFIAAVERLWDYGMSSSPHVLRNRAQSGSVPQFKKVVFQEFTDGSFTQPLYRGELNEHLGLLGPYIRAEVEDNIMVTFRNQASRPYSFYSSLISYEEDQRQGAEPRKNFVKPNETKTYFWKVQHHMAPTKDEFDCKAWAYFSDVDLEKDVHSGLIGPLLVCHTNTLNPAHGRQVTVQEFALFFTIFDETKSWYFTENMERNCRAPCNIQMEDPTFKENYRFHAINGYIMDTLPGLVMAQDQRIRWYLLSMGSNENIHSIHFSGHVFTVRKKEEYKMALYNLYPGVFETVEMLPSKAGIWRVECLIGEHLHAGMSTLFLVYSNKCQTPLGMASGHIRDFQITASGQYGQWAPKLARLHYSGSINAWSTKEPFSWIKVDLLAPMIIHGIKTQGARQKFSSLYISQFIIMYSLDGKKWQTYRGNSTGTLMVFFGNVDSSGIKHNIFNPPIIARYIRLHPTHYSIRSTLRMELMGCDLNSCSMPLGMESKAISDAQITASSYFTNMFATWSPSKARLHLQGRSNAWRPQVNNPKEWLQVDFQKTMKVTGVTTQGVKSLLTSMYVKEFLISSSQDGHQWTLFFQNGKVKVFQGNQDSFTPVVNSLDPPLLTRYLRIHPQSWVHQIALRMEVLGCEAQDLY
Chain of Coagulation factor IX/VIII (P00740 47-191 limits assumed): as the sequence (P00740 47-191 limits assumed) above
Chain of Coagulation factor IX/VIII (P00740 227-461 limits assumed): as the sequence (P00740 227-461 limits assumed) above

inhibition [4] | inhibition (active/not active) [5] | Ratio [7] [U] | inhibition [8] | inhibition [9] | Ratio [10] [U] | inhibition [11] | inhibition [12] | inhibition [15] | inhibition [16] | inhibition [17] | inhibition [18] | inhibition [19] | Ratio [21] [U] | inhibition [22] | Ratio [26] [U] | Structure (SMILES) | Ratio [13] [U] | Ratio [14] [U] | Activity [20] | Activity [25] | also measured
inactive | Active | 3.32 | inactive | inactive | 0.02 | inactive | inactive | inactive | Active | inactive | Active | inactive | 0.16 | inactive | 0.36 | CC(=O)N[C@H]1[C@H](O[C@@H]([C@H](O[C@@H]2O[C@@H](C)[C@@H](OS(=O)(=O)[O-])[C@@H](OS(=O)(=O)O)[C@@H]2O)[C@@H](O)CO)[C@H](O)C(=O)[O-])O[C@H](COS(=O)(=O)[O-])[C@H](OS(=O)(=O)[O-])[C@@H]1O[C@@H]1OC(C(=O)[O-])=C[C@H](O[C@@H]2O[C@@H](C)[C@@H](OS(=O)(=O)[O-])[C@@H](OS(=O)(=O)O)[C@@H]2O)[C@H]1O.[Na+].[Na+].[Na+].[Na+].[Na+].[Na+] | 0.04 | 0.9 | Active | Active | EC [1]: 199 µM; Ratio [2]: 0.19 U; IC50 [3]: > 3 µM; Ratio [6]: 3.96 U; Activity [23]: 30.8%; IC50 [24]: 12.9 µM; inhibition [27]: 14.2%
inactive | inactive | 13 | inactive | inactive | 1.56 | inactive | inactive | inactive | Active | inactive | Active | inactive | 2.27 | inactive | 8.98 | CC(=O)N[C@H]1[C@H](O[C@@H]([C@H](O[C@@H]2O[C@@H](C)[C@@H](OS(=O)(=O)[O-])[C@@H](OS(=O)(=O)O)[C@@H]2O)[C@@H](O)CO)[C@H](O)C(=O)[O-])O[C@@H](COS(=O)(=O)[O-])[C@H](OS(=O)(=O)[O-])[C@@H]1O[C@@H]1O[C@H](C(=O)[O-])[C@@H](O[C@@H]2O[C@H](COS(=O)(=O)[O-])[C@H](OS(=O)(=O)[O-])[C@H](O[C@@H]3OC(C(=O)[O-])=C[C@H](O[C@@H]4O[C@@H](C)[C@@H](OS(=O)(=O)[O-])[C@@H](S(=O)(=O)O)[C@@H]4O)[C@H]3O)[C@H]2NC(C)=O)[C@H](O[C@@H]2O[C@@H](C)[C@@H](OS(=O)(=O)[O-])[C@@H](OS(=O)(=O)O)[C@@H]2O)[C@@H]1O.[Na+].[Na+].[Na+].[Na+].[Na+].[Na+].[Na+].[Na+].[Na+].[Na+] | 1.91 | 10.96 | Active | Active | Ratio [28]: 24.31 U; Ratio [29]: 4.23 U; Activity [30]: Not Active; Activity [31]: Not Active; inhibition [27]: 14.2%

Reference: ChEMBL document CHEMBL4765450, “The components and activities analysis of a novel anticoagulant candidate dHG-5” (Eur J Med Chem, 2020)
